Measurements as given in publication PMC9225741, “Inhibition of Streptococcus mutans adhesion and biofilm formation with small-molecule inhibitors of sortase A from Juniperus chinensis” (Journal of Oral Microbiology, 2022).
Converted amounts (≈) assume the structure as drawn. “Also recorded” adds a separate entry of the source. Read-outs that look alike come from different tables or passages of the source.

Legend:
S. mutans = assay: Biofilm formation assay (polystyrene plate and resin teeth, safranin staining); type: cell-based, Streptococcus mutans; conditions: 24 h
Description: The effect of SrtA inhibition on bacterial biofilm formation was investigated using the polystyrene plate and resin teeth model according to a previously described method. Wild-type S. mutans and srtA mutants were inoculated aerobically into 5 mL of BHI broth at 37°C. Cultures in BHI broth containing 0.1% sucrose (final concentration 5 × 10^5 CFU/mL) were incubated with or without test compounds on 96-well polystyrene plates or with resin teeth (Endura, Shofu Inc., Kyoto, Japan) at 37°C for 24 h under aerobic condition. Biofilms formed on the plate and resin teeth were washed twice with distilled water and then stained with 0.1% safranin for 30 s. After three further washes, the safranin-bound biofilms on plates were dissolved with 30% acetic acid (v/v aqueous solution) and the intensity of absorbance at 530 nm wavelength, indicating safranin, was measured. Biofilms on resin teeth was also washed three times and photographed.
Bacterial adherence and aggregation are initial steps in the biofilm formation process. Through interruption of SrtA enzyme activity, biofilm formation by S. mutans could also be disrupted. To investigate the effect of compound 1 on biofilm formation of S. mutans, the biofilm biomasses of NG8 and srtA mutants formed over 24 h on 96-well plates and resin teeth were assessed through staining with 0.1% safranin.
Figure 5. Inhibition of Streptococcus mutans biofilm formation by compound 1. Biofilm formation assays were performed using a polystyrene 96-well plate (A) and artificial resin teeth (B) at 37°C for 24 h under aerobic condition. […] 0.1% NaF was used as a positive control. Data are presented as the mean ± SD of three independent experiments (* p < 0.05, ** p < 0.01, and *** p < 0.001 based on Student’s t-test).

S. mutans SrtA = molecular target: T1, S. mutans SrtA (Streptococcus mutans, UniProt Q8CM62); assay: biochemical; type: biochemical, Streptococcus mutans OMZ65
T1 construct: made in house; host or cells: Escherichia coli
T1 sequence (Q8CM62 entry or part of it): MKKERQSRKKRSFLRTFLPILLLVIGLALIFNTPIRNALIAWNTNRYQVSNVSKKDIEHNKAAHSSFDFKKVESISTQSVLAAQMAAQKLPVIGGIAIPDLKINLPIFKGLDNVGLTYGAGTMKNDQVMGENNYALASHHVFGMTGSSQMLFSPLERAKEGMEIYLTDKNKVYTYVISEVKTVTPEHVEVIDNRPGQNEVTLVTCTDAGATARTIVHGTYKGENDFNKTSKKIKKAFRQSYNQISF
Description: Recombinant SrtA protein was prepared following previously described procedures. S. mutans OMZ65 isolated from the human oral cavity was provided by Seoul National University School of Dentistry. The srtA genes derived from S. mutans OMZ65 were expressed in Escherichia coli and SrtA was purified through metal chelate affinity chromatography on Ni-nitriloacetic acid (NTA) resin. Each reaction was performed in a total volume of 100 μL, containing 50 mM Tris-HCl, 150 mM NaCl, and 5 mM CaCl2 at pH 7.5, along with 17 μg of purified SrtA and 250 ng of synthetic substrate (Dabcyl-LPETG-Edans). The sample compounds were added to each reaction mixture with the solvent DMSO (final concentration, 1%). After 1 h of incubation at 37°C, the reactions were quantified based on fluorometric intensity (350 nm excitation and 495 nm emission wavelengths) using a microplate reader (FLx800, BioTek Instruments, Winooski, VT). Triphasiol was used as a positive control for the SrtA inhibitor.
Recombinant SrtA protein derived from S. mutans OMZ65 was prepared from an extract of E. coli transformant using Ni-NTA affinity chromatography. SrtA enzyme activities were measured through a fluorophotometric method using synthetic peptide substrate containing the LPETG motif. […] As SrtA inhibitors may act as anti-infective agents and disrupt bacterial infectiousness without impacting bacterial viability, the MICs of the isolated compounds were evaluated to identify possible effects on S. mutans aggregation, adhesion, and biofilm formation on solid surfaces.

[1] = tested on: S. aureus ATCC6537p-derived SrtA; parameters: method as in PMID 16010573; conditions: cited from earlier work
SrtA S. mutans OMZ65 = tested on: SrtA S. mutans OMZ65; parameters: method as in PMID 25746812; conditions: read-out: IC50, SrtA inhibitors against S. mutans OMZ65; cited from earlier work
SrtA = conditions: read-out: IC50, SrtA activity; cited from earlier work
[2] = tested on: SrtA derived from S. mutans UA159; conditions: cited from earlier work
S. mutans OMZ65 = assay: Antibacterial activity assay (MIC, broth dilution); type: cell-based, Streptococcus mutans; conditions: S. mutans OMZ65, BHI broth, 16–20 h, 37°C, read-out: MIC (minimum inhibitory concentration)
Description: Antibacterial activities of isolated compounds were determined according to a previously described method based on Clinical and Laboratory Standards Institute guidelines. Briefly, 5 mL of S. mutans OMZ65 was inoculated into brain heart infusion (BHI) broth, incubated aerobically for 16 h at 37°C, and the bacterial density was adjusted based on turbidity to match the 0.5 MacFarland standard at 625 nm. In each well of a 96-well plate, 20 μL of twofold diluted test compounds in 10% DMSO was added to 180 μL of cell culture in BHI broth and incubated for 16–20 h at 37°C. The final concentration of cells was approximately 5 × 10^5 colony-forming units (CFU)/mL. The minimal inhibitory concentration (MIC) values were identified as the lowest concentration that inhibited cell growth. Ampicillin was used as an antibacterial positive control.

S. mutans NG8 [3] = assay: Adherence assay on saliva-coated hydroxyapatite beads; type: cell-based, Streptococcus mutans; conditions: 90 min
Description: The effect of SrtA inhibition on bacterial adherence was evaluated using saliva-coated hydroxyapatite beads (s-HAs) [11, 25]. A total of 30 μg of s-HAs (diameter, 80 µm; Bio-Rad, Hercules, CA) were coated with fresh saliva prepared as mentioned above for 1 h at room temperature and rinsed twice with 0.01 M potassium phosphate buffer (KPB; pH 7.0). S. mutans NG8 (wild type), srtA-deletion mutant (ΔsrtA), and srtA-complemented mutant (ΔsrtA + srtA) [11] were inoculated into 5 mL of BHI broth, incubated aerobically for 16 h at 37°C, and diluted to about 10^8 CFU/mL. […] After three rounds of washing with KPB, attachment between s-HAs and S. mutans cells was disrupted through sonication (50 W, 30s) in KPB. Dispersed cells were spread on Mitis-Salivarius agar (Difco, Detroit, MI) plates containing 3.2 mg/mL bacitracin. The number of colonies formed was determined after incubation for 48 h at 37°C.
In the present study, the role of SrtA inhibitors in modulating cell-surface-related properties of S. mutans was investigated in terms of adherence.
Attachment of S. mutans NG8, srtA-deletion mutant (ΔsrtA), and srtA-complemented mutant (ΔsrtA+srtA) was induced for 90 min at 37°C under aerobic condition, followed by dispersal via sonication (50 W, 30s) after three washes, and then colony-forming unit counting on Mitis-Salivarius agar (3.2 mg/mL bacitracin) after incubation for 48 h at 37°C. […]

S. mutans NG8 [4] = assay: Saliva-induced aggregation assay; type: cell-based, Streptococcus mutans
Description: The effect of SrtA inhibitor on bacterial cell aggregation induced by human saliva was conducted according to a previously documented procedure. S. mutans NG8 (wild-type), srtA-deletion mutant (ΔsrtA), and srtA-complemented mutant (ΔsrtA+srtA) were used in this study. These strains were kindly provided by Prof. S. F. Lee (Dalhousie University, Nova Scotia, Canada) and inoculated into Todd Hewitt broth and incubated for 16 h at 37°C, washed twice with KPBS (137 mM NaCl, 2.7 mM KCl, 6.5 mM Na2HPO4, 1.5 mM KH2PO4, pH 7.2), and resuspended in KPBS to an approximate optical density of 1.0 at 700 nm. Assay mixtures consisted of 400 μL of cells, 100 μL of fresh clarified saliva, and diluted test compounds. Saliva was provided from one volunteer (a unmarried person) who had no dental health issues. The collected non-stimulated saliva was clarified by centrifugation (7,000 × g, 10 min, 4°C) and sterilized by membrane filtration (0.2 μm pore size). The mixtures were gently mixed through inversion and incubated aerobically at 37°C for 2 h. Turbidity at 700 nm was recorded every 20 min.
Using a combined bioactivity test, we subsequently examined the inhibitory effects of compound 1 on saliva-induced aggregation of S. mutans (Figure 3). […] Aggregation levels were measured based on the decrease of turbidity at 700 nm. […]

[5] = tested on: SrtA (from strain ATCC25175); parameters: method as in PMID 24154653; conditions: cited from earlier work
[6] = SrtA IC50, recombinant SrtA from S. mutans OMZ65, 1 h, 37°C

[F-].[Na+] [NaF, reference compound]
effect on S. mutans biofilm formation (positive control) (S. mutans; 0.1%): potent inhibitory effects

CC(C)C(=O)Cc1c(OCC(O)C(C)(C)O)ccc2ccc(=O)oc12 (stereo not drawn) [Triphasiol, reference compound]
pIC50 (S. mutans SrtA; pIC50 = −log10(IC50), S. mutans SrtA): 4.60 | IC50 (S. mutans SrtA; recombinant SrtA from S. mutans OMZ65, 1 h, 37°C, read-out: SrtA IC50): 25.3 µM | IC50 [1]: 34.5 µM

O=C(O)/C=C/c1ccc(O)c(O)c1 [caffeic acid]
IC50 (SrtA S. mutans OMZ65): 20.2 µM

O=c1c(O)c(-c2cc(O)c(O)c(O)c2)oc2cc(O)cc(O)c12 [myricetin]
IC50 (SrtA): 48.7 µM

O=c1c(O)c(-c2ccc(O)cc2O)oc2cc(O)cc(O)c12 [morin]
IC50 [2]: 27.2 µM

COc1cc(C[C@H]2COC(=O)[C@@H]2Cc2ccc(O)c(OC)c2)ccc1O [Compound 2, (−)-matairesinol]
IC50 (S. mutans SrtA; [6]): > 300 µM | MIC (S. mutans OMZ65; Streptococcus mutans): > 300 µM

O=c1c(O)c(-c2ccc(O)c(O)c2)oc2cc(O)cc(O)c12 [Compound 3, quercetin]
SrtA inhibitory activity (in words) (S. mutans SrtA; S. mutans SrtA): weak inhibitory activities | MIC (S. mutans OMZ65; Streptococcus mutans): > 300 µM

C/C(=C\Cc1ccc(=O)c(O)cc1C(C)C)CO [Compound 6, juniperone A]
IC50 (S. mutans SrtA; [6]): 62.5 µM | MIC (S. mutans OMZ65; Streptococcus mutans): 257 µM (≈ 63.8 µg/mL)

COc1cc(C[C@H]2COC(=O)[C@@H]2Cc2cc(O)c(O)c(OC)c2)cc(O)c1O [Compound 1, 3’,3”-dihydroxy-(−)-matairesinol]
adherence of S. mutans to s-HAs vs control (NG8) (S. mutans NG8 [3]; 1× IC50 (16.1 μM)): not significantly different | decrease of bacterial adhesion to s-HAs compared to the control group (S. mutans NG8 [3]; 4× the IC50 (64.4 μM)): about 60% | biofilm formation on 96-well polystyrene plates (S. mutans; 4× the IC50 (64.4 μM), 0.1% sucrose): significantly reduced | concentrations disrupting biofilm formation on the surface of resin teeth (S. mutans; 0.1% sucrose, safranin staining): higher than 32.2 μM | IC50 (S. mutans SrtA; [6]): 16.1 µM | MIC (S. mutans OMZ65): >300 µM | MIC (S. mutans OMZ65; Streptococcus mutans): > 300 µM | saliva-induced cell aggregation (S. mutans NG8 [4]; 4× the IC50, without sucrose): significantly repressed | saliva-induced aggregation of NG8 cells (turbidity at 700 nm) (S. mutans NG8 [4]; tested at 0×, 1×, 2× and 4× the SrtA IC50 (16.1, 32.2, 64.4 μM), 2 h, 37°C): markedly reduced the aggregation of NG8 cells in a dose-dependent manner; also recorded: markedly reduced the aggregation capacity of the bacterial cells in a dose-dependent manner

C[C@@H]1O[C@@H](O[C@H]2C(=O)c3c(O)cc(O)cc3O[C@@H]2c2ccc(O)c(O)c2)[C@H](O)[C@H](O)[C@H]1O [Astillbin]
IC50, SrtA (from strain ATCC25175) [5]: 7.5 µg/mL (≈ 16.7 µM) | IC50 ([5]; value in brackets): 16.7 µM

CC1(C)S[C@@H]2[C@H](NC(=O)[C@H](N)c3ccccc3)C(=O)N2[C@H]1C(=O)O [Ampicillin, reference compound]
MIC (S. mutans OMZ65; Streptococcus mutans): 0.4 µM (≈ 0.14 µg/mL)

CC(C)c1cc(=O)c(O)ccc1O [Compound 5, 5-hydroxyhinokitiol]
IC50 (S. mutans SrtA; [6]): 51.7 µM | MIC (S. mutans OMZ65; Streptococcus mutans): > 300 µM

COc1cc(/C=C/C(=O)CC(=O)/C=C/c2ccc(O)c(OC)c2)ccc1O [curcumin]
IC50 [2]: 10.2 µM

COc1cc(O)cc(O)c1C(C)=O [Compound 4, 4,6-dihydroxy-2-methoxyacetophenone]
SrtA inhibitory activity (in words) (S. mutans SrtA; S. mutans SrtA): weak inhibitory activities | IC50 (S. mutans SrtA; [6]): 151 µM | IC50 (S. mutans SrtA; pIC50, pIC50 = −log10(IC50), S. mutans SrtA): 155 µM | MIC (S. mutans OMZ65; Streptococcus mutans): > 300 µM

(−)-rosmarinic acid
IC50 (SrtA S. mutans OMZ65): 20.1 µM
